# Laboratory results as given in patent publication US20240092799A1, “MNK INHIBITORS” (Hepagene Therapeutics (HK) Limited, priority 2020, published 2024).
# Target: MNK2 (Homo sapiens (Human), UniProt Q9HBH9)
# Assay: MNK Biochemical Enzymatic Assay (ADP-Glo), MNK2 binding assay
# Experimental: MNK Biochemical Enzymatic Assay. This protocol establishes the binding assays for MNK1 and MNK2 using ADP-Glo assay. MNK phosphorylates the substrate and converts ATP to ADP, which was detected by Envision and used to reflect the reminding activity of MNK. Reagents and equipment used in the assay are listed below, followed by the protocol.
# • a) Add 50 μL compound to 384-well dilution plate • b) Dilute compound 1:3 in succession in DMSO for each column for 10+0 pts (refer to dilution plate map) • c) Transfer 0.1 μL diluted compound solution in each row to 384 assay plate using Echo, each column containing 2 replicates (refer to assay plate map) • d) Add 5 μL enzyme working solution to 384-well assay plate, centrifuge 1000 RPM for 1 min • e) Incubate at 25° C. for 15 min • f) Add 5 μL substrate working solution to initiate reaction • g) Incubate at 25° C. for 60 min • h) Add 10 μL ADP Glo reagent, centrifuge 1000 RPM for 1 min • i) Incubate at 25° C. for 60 min • j) Add 20 μL kinase detection reagent, centrifuge 1000 RPM for 1 min • k) Incubate at 25° C. for 60 min • l) Read on Envision for US LUM as RLU • m) Data analysis: IC50s were determined based on a non-linear regression analysis of data collected.
# Sequence of MNK2 (Q9HBH9 whole entry): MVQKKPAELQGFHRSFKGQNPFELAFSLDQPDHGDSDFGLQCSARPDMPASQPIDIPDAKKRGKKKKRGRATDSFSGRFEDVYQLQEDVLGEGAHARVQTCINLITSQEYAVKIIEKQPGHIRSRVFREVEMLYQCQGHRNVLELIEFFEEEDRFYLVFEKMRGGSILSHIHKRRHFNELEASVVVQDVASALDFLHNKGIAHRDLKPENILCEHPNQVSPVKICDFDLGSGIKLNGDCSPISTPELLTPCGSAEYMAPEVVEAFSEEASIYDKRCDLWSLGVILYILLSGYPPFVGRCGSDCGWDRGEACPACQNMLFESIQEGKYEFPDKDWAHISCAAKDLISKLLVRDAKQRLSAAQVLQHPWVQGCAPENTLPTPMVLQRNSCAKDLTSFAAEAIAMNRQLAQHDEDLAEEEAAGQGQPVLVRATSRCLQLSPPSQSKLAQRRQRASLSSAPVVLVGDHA
row,Structure (SMILES),IC50 [µM]
1,"O=C1NC2(CCCCC2)c2cc(Nc3ncnc4sccc34)sc21 [Compound X-B, 2′-(thieno[2,3-d]pyrimidin-4-ylamino)spiro[cyclohexane-1,4′-thieno[2,3-c]pyrrol]-6′(5′H)-one]",0.1 to 1
2,"O=C1NC2(CCCCC2)c2cc(Nc3cc(N4CCOCC4)ncn3)sc21 [Compound XXIII-K, 2′-((6-Morpholinopyrimidin-4-yl)amino)spiro[cyclohexane-1,4′-thieno[2,3-c]pyrrol]-6′(5′H)-one]",> 1
3,"CC(=O)N(C)c1cccc(Nc2cc(Nc3nc4c(s3)C(=O)NC43CCCCC3)ncn2)c1 [Compound XXVIII-I, N-methyl-N-(3-((6-((6′-oxo-5′,6′-dihydrospiro[cyclohexane-1,4′-pyrrolo[3,4-d]thiazol]-2′-yl)amino)pyrimidin-4-yl)amino)phenyl)acetamide]",0.01 to 0.1
4,"CN1CCN(c2cc(Nc3cc4c(s3)C(=O)NC43CCCCC3)ncn2)CC1 [Compound XXIII-M, 2′-((6-(4-Methylpiperazin-1-yl)pyrimidin-4-yl)amino)spiro[cyclohexane-1,4′-thieno[2,3-c]pyrrol]-6′(5′H)-one]",> 1
5,"Nc1cc(Nc2cc3c(s2)C(=O)NC32CCCCC2)ncn1 [Compound X, 2′-((6-Aminopyrimidin-4-yl)amino)spiro[cyclohexane-1,4′-thieno[2,3-c]pyrrol]-6′(5′H)-one]",0.01 to 0.1
6,"CN(C)CCNc1cc(Nc2cc3c(s2)C(=O)NC32CCCCC2)ncn1 [Compound XXIII-A, 2′-((6-((2-(Dimethylamino)ethyl)amino)pyrimidin-4-yl)amino)spiro [cyclohexane-1,4′-thieno[2,3-c]pyrrol]-6′(5′H)-one]",0.1 to 1
7,"CC1(C)COC(Nc2cc(Nc3nc4c(s3)C(=O)NC43CCCCC3)ncn2)=N1 [Compound XXVIII-E, 2′-((6-((4,4-dimethyl-4,5-dihydrooxazol-2-yl)amino)pyrimidin-4-yl)amino)spiro[cyclohexane-1,4′-pyrrolo[3,4-d]thiazol]-6′(5′H)-one]",> 1
8,"CN(C)C(=O)C1CCc2c(sc3ncnc(Nc4cc5c(s4)C(=O)NC54CCCCC4)c23)C1 (centres unmarked) [Compound XXV-B, N,N-Dimethyl-4-((6′-oxo-5′,6′-dihydrospiro[cyclohexane-1,4′-thieno[2,3-c]pyrrol]-2′-yl)amino)-5,6,7,8-tetrahydrobenzo[4,5]thieno[2,3-d]pyrimidine-7-carboxamide]",0.01 to 0.1
9,"O=C1NC2(CCCCC2)c2cc(Nc3cc(N4CCCCC4)ncn3)sc21 [Compound XXIII-E, 2′-((6-(Piperidin-1-yl)pyrimidin-4-yl)amino)spiro[cyclohexane-1,4′-thieno[2,3-c]pyrrol]-6′(5′H)-one]",> 1
10,"O=C1NC2(CCCCC2)c2cc(Nc3ncnc4sc5c(c34)CCC(C(=O)O)C5)sc21 (centres unmarked) [Compound XXV-6, 4-((6′-Oxo-5′,6′-dihydrospiro[cyclohexane-1,4′-thieno[2,3-c]pyrrol]-2′-yl)amino)-5,6,7,8-tetrahydrobenzo[4,5]thieno[2,3-d]pyrimidine-7-carboxylic acid]",0.01 to 0.1
11,"O=C1NC2(CCCCC2)c2cc(Nc3cc(Nc4ccccc4)ncn3)sc21 [Compound XXIII-B, 2′-((6-(Phenylamino)pyrimidin-4-yl)amino)spiro[cyclohexane-1,4′-thieno[2,3-c]pyrrol]-6′(5′H)-one]",0.01 to 0.1
12,"C[C@@H]1CN(C(=O)C2CCc3c(sc4ncnc(Nc5cc6c(s5)C(=O)NC65CCCCC5)c34)C2)CCN1C (stereo partly drawn) [Compound XXV-A, 2′-((7-((R)-3,4-Dimethylpiperazine-1-carbonyl)-5,6,7,8-tetrahydrobenzo[4,5]thieno[2,3-d]pyrimidin-4-yl)amino)spiro[cyclohexane-1,4′-thieno[2,3-c]pyrrol]-6′(5′H)-one]",0.01 to 0.1
13,O=C1NC2(CCCCC2)c2cc(Nc3cc(Nc4cccnc4)ncn3)sc21 [Compound XXIII-Z],0.01 to 0.1
14,"O=C1NC2(CCCCC2)c2cc(Nc3cc(Cl)ncn3)sc21 [Compound XXIII-G, 2′-((6-Chloropyrimidin-4-yl)amino)spiro[cyclohexane-1,4′-thieno[2,3-c]pyrrol]-6′(5′H)-one]",0.01 to 0.1
15,"Nc1cc(Nc2sc3c(c2Cl)C2(CCCCC2)NC3=O)ncn1 [Compound XXI, 2′-((6-Aminopyrimidin-4-yl)amino)-3′-chlorospiro[cyclohexane-1,4′-thieno[2,3-c]pyrrol]-6′(5′H)-one]",0.1 to 1

# Next, values leading:
row,IC50 [µM],Structure (SMILES)
1,0.01 to 0.1,"Cc1cc(Nc2cc(N[C@@H]3CCC[C@H]3O)ncn2)[n+]([O-])c2c1C(=O)NC21CCCCC1 [Compound XXIX-X, 2′-((6-(((1R,2R)-2-hydroxycyclopentyl)amino)pyrimidin-4-yl)amino)-4′-methyl-5′-oxo-5′,6′-dihydrospiro[cyclohexane-1,7′-pyrrolo[3,4-b]pyridine] 1′-oxide]"
2,0.01 to 0.1,"Cc1cc(Nc2ncnc3[nH]ncc23)[n+]([O-])c2c1C(=O)NC21CCCCC1 [Compound XXIX-AAH, 2′-((1H-pyrazolo[3,4-d]pyrimidin-4-yl)amino)-4′-methyl-5′-oxo-5′,6′-dihydrospiro[cyclohexane-1,7′-pyrrolo[3,4-b]pyridine] 1′-oxide]"
3,0.1 to 1,"COC(=O)C1(Nc2cc(Nc3cc(C)c4c([n+]3[O-])C3(CCCCC3)NC4=O)ncn2)CCOC1 (centres unmarked) [Compound XXIX-AAG, 2′-((6-((3-(methoxycarbonyl)tetrahydrofuran-3-yl)amino)pyrimidin-4-yl)amino)-4′-methyl-5′-oxo-5′,6′-dihydrospiro[cyclohexane-1,7′-pyrrolo[3,4-b]pyridine] 1′-oxide]"
4,0.1 to 1,"Cc1cc(Nc2ccnc(N[C@H]3CCOC3)c2)[n+]([O-])c2c1C(=O)NC21CCCCC1 [Compound XXIX-H, (S)-4′-methyl-5′-oxo-2′-((2-((tetrahydrofuran-3-yl)amino)pyridin-4-yl)amino)-5′,6′-dihydrospiro[cyclohexane-1,7′-pyrrolo[3,4-b]pyridine] 1′-oxide]"
5,0.01 to 0.1,"Cc1nc(Nc2cc(C)c3c([n+]2[O-])C2(CCCCC2)NC3=O)cc(N[C@H]2CCOC2)n1 [Compound XXIX-AY, (S)-4′-methyl-2′-((2-methyl-6-((tetrahydrofuran-3-yl)amino)pyrimidin-4-yl)amino)-5′-oxo-5′,6′-dihydrospiro[cyclohexane-1,7′-pyrrolo[3,4-b]pyridine] 1′-oxide]"
6,0.0001 to 0.01,"Cc1cc(Nc2cc(NC(=O)C3CCCC3)ncn2)[n+]([O-])c2c1C(=O)NC21CCCCC1 [Compound XXIX-G, 2′-((6-(cyclopentanecarboxamido)pyrimidin-4-yl)amino)-4′-methyl-5′-oxo-5′,6′-dihydrospiro[cyclohexane-1,7′-pyrrolo[3,4-b]pyridine] 1′-oxide]"
7,0.01 to 0.1,"CC(=O)N(C)c1cccc(Nc2cc(Nc3cc(C)c4c([n+]3[O-])C3(CCCCC3)NC4=O)ncn2)c1 [Compound XXIX-N, 4′-methyl-2′-((6-((3-(N-methylacetamido)phenyl)amino)pyrimidin-4-yl)amino)-5′-oxo-5′,6′-dihydrospiro[cyclohexane-1,7′-pyrrolo[3,4-b]pyridine] 1′-oxide]"
8,0.01 to 0.1,"Cc1cc(Nc2cc(Nc3cccnc3)ncn2)[n+]([O-])c2c1C(=O)NC21CCCCC1 [Compound XXIX-AJ, 4′-methyl-5′-oxo-2′-((6-(pyridin-3-ylamino)pyrimidin-4-yl)amino)-5′,6′-dihydrospiro[cyclohexane-1,7′-pyrrolo[3,4-b]pyridine] 1′-oxide]"
9,0.01 to 0.1,"CC(=O)N1CC(Nc2cc(Nc3cc(C)c4c([n+]3[O-])C3(CCCCC3)NC4=O)ncn2)C1 [Compound XXIX-AC, 2′-((6-((1-acetylazetidin-3-yl)amino)pyrimidin-4-yl)amino)-4′-methyl-5′-oxo-5′,6′-dihydrospiro[cyclohexane-1,7′-pyrrolo[3,4-b]pyridine] 1′-oxide]"
10,0.1 to 1,"O=C1NC2(CCCCC2)c2cc(Nc3cc(NC4CCOCC4)ncn3)sc21 [Compound XXIV-D, 2′-((6-((tetrahydro-2H-pyran-4-yl)amino)pyrimidin-4-yl)amino)spiro[cyclohexane-1,4′-thieno[2,3-c]pyrrol]-6′(5′H)-one]"
11,0.1 to 1,"CC(=O)N1CC[C@H](Nc2cc(Nc3cc(C)c4c([n+]3[O-])C3(CCCCC3)NC4=O)ncn2)C1 [Compound XXIX-J, (S)-2′-((6-((1-acetylpyrrolidin-3-yl)amino)pyrimidin-4-yl)amino)-4′-methyl-5′-oxo-5′,6′-dihydrospiro[cyclohexane-1,7′-pyrrolo[3,4-b]pyridine] 1′-oxide]"
12,0.01 to 0.1,"Cc1cc(Nc2cc(N[C@H]3C[C@H](O)C3)ncn2)[n+]([O-])c2c1C(=O)NC21CCCCC1 [Compound XXIX-T, trans-2′-((6-(((1r,3r)-3-hydroxycyclobutyl)amino)pyrimidin-4-yl)amino)-4′-methyl-5′-oxo-5′,6′-dihydrospiro[cyclohexane-1,7′-pyrrolo[3,4-b]pyridine] 1′-oxide]"
13,0.01 to 0.1,"O=C1NC2(CCCCC2)c2cc(Nc3cc(N[C@H]4CCC[C@@H]4O)ncn3)sc21 [Compound XXIII-X, 2′-((6-(((1S,2S)-2-hydroxycyclopentyl)amino)pyrimidin-4-yl)amino)spiro[cyclohexane-1,4′-thieno[2,3-c]pyrrol]-6′(5′H)-one]"
14,0.1 to 1,"Cc1cc(Nc2cc(N[C@@H]3CCC[C@@H]3O)ncn2)[n+]([O-])c2c1C(=O)NC21CCCCC1 [Compound XXIX-W, 2′-((6-(((1R,2S)-2-hydroxycyclopentyl)amino)pyrimidin-4-yl)amino)-4′-methyl-5′-oxo-5′,6′-dihydrospiro[cyclohexane-1,7′-pyrrolo[3,4-b]pyridine] 1′-oxide]"
